Assays:
HT-1080 = test: Modulatory profiling: Alamar Blue viability, lethal compound cotreated with death modulator (EC50, AUC); format: cell-based; parameters: AUC, modulator HT.3MA / AUC, modulator HT.ALLN / AUC HT.ATA / AUC HT.ActD / AUC HT.BHA / AUC HT.BHT / AUC HT.BocD / AUC HT.CHX / AUC HT.Co2+ / AUC HT.DPQ / AUC HT.EGTA / AUC HT.Lmim / AUC HT.NAD+ / AUC HT.Nec-1 / AUC HT.SP600125 / AUC HT.TLCK / AUC HT.U0126: unit not given beside the values; conditions: for AUC HT.ATA: HT-1080, modulator ATA; for AUC HT.ActD: HT-1080, modulator ActD; for AUC HT.BHA: HT-1080, modulator BHA; for AUC HT.BHT: HT-1080, modulator BHT; for AUC HT.BocD: HT-1080, modulator BocD; for AUC HT.CHX: HT-1080, modulator CHX; for AUC HT.Co2+: HT-1080, modulator Co2+; for AUC HT.CspA: HT-1080, modulator CspA; for AUC HT.DPQ: HT-1080, modulator DPQ; for AUC HT.EGTA: HT-1080, modulator EGTA; for AUC HT.Gd3+: HT-1080, modulator Gd3+; for AUC HT.LNAME: HT-1080, modulator LNAME; for AUC HT.Lmim: HT-1080, modulator Lmim; for AUC HT.NAD+: HT-1080, modulator NAD+; for AUC HT.NMMA: HT-1080, modulator NMMA; for HT.atoc (AUC) / HT.bCarotene (AUC) / HT.deferox (AUC) / HT.digoxin (AUC) / HT.trolox (AUC) / HT.zVAD (AUC): HT-1080; for HT.atoc (AUC): modulator atoc; for HT.bCarotene (AUC): modulator bCarotene; for HT.deferox (AUC): modulator deferox; for HT.digoxin (AUC): modulator digoxin; for HT.trolox (AUC): modulator trolox; for HT.zVAD (AUC): modulator zVAD; for AUC HT.BHA: reference of the scale not given here; for AUC HT.EGTA: reference of the scale not given here
BJeLR = test: as above; format: cell-based, human; parameters: AUC, modulator BJ.Gd3+ / AUC, modulator BJ.LNAME / AUC, modulator BJ.Lmin / AUC, modulator BJ.3MA / AUC, modulator BJ.ALLN / AUC, modulator BJ.Boc D / AUC, modulator BJ.CHX / AUC, modulator BJ.Co2+ / AUC, modulator BJ.Nec-1 / AUC, modulator BJ.Pepstatin / AUC, modulator BJ.TLCK / AUC, modulator BJ.atoc / AUC, modulator BJ.trolox / AUC, modulator BJ.zVAD: unit not given beside the values; conditions: BJeLR cells, modulatory profile value (AUC); for AUC, modulator BJ.3MA: lethal compound cotreated with modulator 3MA; for AUC, modulator BJ.ALLN: lethal compound cotreated with modulator ALLN; for AUC, modulator BJ.Boc D: lethal compound cotreated with modulator Boc D; for AUC, modulator BJ.CHX: lethal compound cotreated with modulator CHX; for AUC, modulator BJ.Co2+: lethal compound cotreated with modulator Co2+; for AUC, modulator BJ.DPQ: lethal compound cotreated with modulator DPQ; for AUC, modulator BJ.Gd3+: lethal compound cotreated with modulator Gd3+; for AUC, modulator BJ.LNAME: lethal compound cotreated with modulator LNAME; for AUC, modulator BJ.Lmin/NAD+: lethal compound cotreated with modulator Lmin/NAD+; for AUC, modulator BJ.Lmin: lethal compound cotreated with modulator Lmin; for AUC, modulator BJ.NAD+: lethal compound cotreated with modulator NAD+; for AUC, modulator BJ.NMMA: lethal compound cotreated with modulator NMMA; for AUC, modulator BJ.Nec-1: lethal compound cotreated with modulator Nec-1; for AUC, modulator BJ.Pepstatin: lethal compound cotreated with modulator Pepstatin; for AUC, modulator BJ.TLCK: lethal compound cotreated with modulator TLCK; for AUC, modulator BJ.3MA: reference of the scale not given here; for AUC, modulator BJ.ALLN: reference of the scale not given here; for AUC, modulator BJ.Boc D: reference of the scale not given here; for AUC, modulator BJ.CHX: reference of the scale not given here; for AUC, modulator BJ.Co2+: reference of the scale not given here; for AUC, modulator BJ.DPQ: reference of the scale not given here; for AUC, modulator BJ.Gd3+: reference of the scale not given here; for AUC, modulator BJ.LNAME: reference of the scale not given here; for AUC, modulator BJ.NAD+: reference of the scale not given here; for AUC, modulator BJ.NMMA: reference of the scale not given here; for AUC, modulator BJ.Nec-1: reference of the scale not given here; for AUC, modulator BJ.Pepstatin: reference of the scale not given here; for AUC, modulator BJ.TLCK: reference of the scale not given here

CCOC(=O)[C@@H]1[C@@H](c2ccccc2)C(=O)CCN1NC(=O)c1ccccc1 [CIL89]
AUC HT.ATA (HT-1080): 0.05896
AUC HT.ActD (HT-1080): 0.03977
AUC HT.BHA (HT-1080): −0.006147
AUC HT.BHT (HT-1080): −0.1188
AUC HT.BocD (HT-1080): −0.004667
AUC HT.CHX (HT-1080): −0.008693
AUC HT.Co2+ (HT-1080): 0.008377
AUC HT.CspA (HT-1080): −0.06906
AUC HT.DPQ (HT-1080): −0.005287
AUC HT.EGTA (HT-1080): 0.04226
AUC HT.Gd3+ (HT-1080): −0.04594
AUC HT.LNAME (HT-1080): 0.003061
AUC HT.Lmim (HT-1080): 0.02342
AUC HT.NAD+ (HT-1080): 0.02662
AUC HT.NMMA (HT-1080): −0.009041
HT.atoc (AUC) (HT-1080): 0.0671
HT.bCarotene (AUC) (HT-1080): 0.01857
HT.deferox (AUC) (HT-1080): 0.04587
HT.digoxin (AUC) (HT-1080): 0.01146
HT.trolox (AUC) (HT-1080): −0.02147
HT.zVAD (AUC) (HT-1080): 0.03058
AUC, modulator BJ.3MA (BJeLR): −0.01648
AUC, modulator BJ.ALLN (BJeLR): −0.1204
AUC, modulator BJ.Boc D (BJeLR): 0.03243
AUC, modulator BJ.CHX (BJeLR): 0.1968
AUC, modulator BJ.Co2+ (BJeLR): 0.01721
AUC, modulator BJ.DPQ (BJeLR): −0.02598
AUC, modulator BJ.Gd3+ (BJeLR): −0.07038
AUC, modulator BJ.LNAME (BJeLR): 0.03646
AUC, modulator BJ.Lmin/NAD+ (BJeLR): 0.04069
AUC, modulator BJ.Lmin (BJeLR): 0.03551
AUC, modulator BJ.NAD+ (BJeLR): −0.03932
AUC, modulator BJ.NMMA (BJeLR): −0.02344
AUC, modulator BJ.Nec-1 (BJeLR): −0.02957
AUC, modulator BJ.Pepstatin (BJeLR): −0.006292
AUC, modulator BJ.TLCK (BJeLR): −0.06676

[O-][N+]1=c2ccc(Nc3ccccc3)cc2=NC12CCCCC2 [CIL66]
AUC HT.ATA (HT-1080): 0.02652
AUC HT.ActD (HT-1080): −0.03277
AUC HT.BHA (HT-1080): −0.02085
AUC HT.BHT (HT-1080): −0.1542
AUC HT.BocD (HT-1080): −0.05788
AUC HT.CHX (HT-1080): 0.08144
AUC HT.Co2+ (HT-1080): −0.06034
AUC HT.CspA (HT-1080): −0.05469
AUC HT.DPQ (HT-1080): −0.01105
AUC HT.EGTA (HT-1080): 0.03093
AUC HT.Gd3+ (HT-1080): −0.01757
AUC HT.LNAME (HT-1080): 0.004035
AUC HT.Lmim (HT-1080): 0.01652
AUC HT.NAD+ (HT-1080): −0.01106
AUC HT.NMMA (HT-1080): −0.01421
HT.atoc (AUC) (HT-1080): 0.05045
HT.bCarotene (AUC) (HT-1080): 0.03186
HT.deferox (AUC) (HT-1080): 0.1299
HT.digoxin (AUC) (HT-1080): −0.05456
HT.trolox (AUC) (HT-1080): −0.03334
HT.zVAD (AUC) (HT-1080): 0.01629
AUC, modulator BJ.3MA (BJeLR): 0.04168
AUC, modulator BJ.ALLN (BJeLR): 0.08747
AUC, modulator BJ.Boc D (BJeLR): −0.03146
AUC, modulator BJ.CHX (BJeLR): 0.08369
AUC, modulator BJ.Co2+ (BJeLR): −0.03141
AUC, modulator BJ.DPQ (BJeLR): −0.007284
AUC, modulator BJ.Gd3+ (BJeLR): −0.003838
AUC, modulator BJ.LNAME (BJeLR): 0.02705
AUC, modulator BJ.Lmin/NAD+ (BJeLR): 0.06444
AUC, modulator BJ.Lmin (BJeLR): −0.05195
AUC, modulator BJ.NAD+ (BJeLR): −0.0264
AUC, modulator BJ.NMMA (BJeLR): −0.02558
AUC, modulator BJ.Nec-1 (BJeLR): 0.03694
AUC, modulator BJ.Pepstatin (BJeLR): 0.04469
AUC, modulator BJ.TLCK (BJeLR): −0.07935

COc1c2c(cc3c1C(CC(=O)/C=C/c1ccccc1)[N+](C)(C)CC3)OCO2 (stereo not drawn) [CIL77]
AUC HT.ATA (HT-1080): 0.05492
AUC HT.ActD (HT-1080): 0.0959
AUC HT.BHA (HT-1080): −0.008714
AUC HT.BHT (HT-1080): −0.07998
AUC HT.BocD (HT-1080): −0.02828
AUC HT.CHX (HT-1080): 0.1436
AUC HT.Co2+ (HT-1080): 0.1261
AUC HT.CspA (HT-1080): −0.05791
AUC HT.DPQ (HT-1080): 0.003496
AUC HT.EGTA (HT-1080): −0.00345
AUC HT.Gd3+ (HT-1080): −0.0368
AUC HT.LNAME (HT-1080): 0.01693
AUC HT.Lmim (HT-1080): 0.02573
AUC HT.NAD+ (HT-1080): 0.003357
AUC HT.NMMA (HT-1080): −0.01509
HT.atoc (AUC) (HT-1080): 0.02076
HT.bCarotene (AUC) (HT-1080): −0.005078
HT.deferox (AUC) (HT-1080): 0.09145
HT.digoxin (AUC) (HT-1080): −0.01405
HT.trolox (AUC) (HT-1080): −0.01064
HT.zVAD (AUC) (HT-1080): 0.02554
AUC, modulator BJ.3MA (BJeLR): −0.05728
AUC, modulator BJ.ALLN (BJeLR): 0.01826
AUC, modulator BJ.Boc D (BJeLR): 0.05622
AUC, modulator BJ.CHX (BJeLR): 0.2548
AUC, modulator BJ.Co2+ (BJeLR): 0.1866
AUC, modulator BJ.DPQ (BJeLR): −0.009273
AUC, modulator BJ.Gd3+ (BJeLR): −0.007344
AUC, modulator BJ.LNAME (BJeLR): 0.03349
AUC, modulator BJ.Lmin/NAD+ (BJeLR): 0.04982
AUC, modulator BJ.Lmin (BJeLR): −0.04848
AUC, modulator BJ.NAD+ (BJeLR): −0.05677
AUC, modulator BJ.NMMA (BJeLR): −0.02771
AUC, modulator BJ.Nec-1 (BJeLR): −0.06543
AUC, modulator BJ.Pepstatin (BJeLR): 0.07338
AUC, modulator BJ.TLCK (BJeLR): −0.05565

Source: patent US10947188B2, “Small molecule ferroptosis inducers” (THE TRUSTEES OF COLUMBIA UNIVERSITY IN THE CITY OF NEW YORK, priority 2016, dated 2021)
